Assay results: US5834014A, “Stimulation of hair follicles” (priority 1995, dated 1998)

Experiments:
[1] = in vivo and in vitro, topical administration; cited from earlier work
[2] = transport of water-soluble material by association with nonionic vesicles

| Compound | effect of phospholipid liposomes on penetration into the skin [1] | transport by association with nonionic vesicles [2] |
| --- | --- | --- |
| C[C@]12CC[C@@H]3c4ccc(O)cc4CC[C@H]3[C@@H]1CC[C@@H]2O [estradiol] | do not improve penetration | – |
| C[C@]12CCC(=O)C=C1CC[C@@H]1[C@@H]2[C@@H](O)C[C@@]2(C)[C@H]1CC[C@]2(O)C(=O)CO [hydrocortisone] | do not improve penetration | – |
| CC(=O)[C@H]1CC[C@H]2[C@@H]3CCC4=CC(=O)CC[C@]4(C)[C@H]3CC[C@]12C [progesterone] | do not improve penetration | – |
| TGF-α: water-soluble material tested for transport by association with nonionic vesicles | – | transported to a greater extent |
| carboxyfluoroscein | – | transported to a greater extent |
